# Patent publication US4725683A, “Fluorophenoxyphenoxypropionates and derivatives thereof” (The Dow Chemical Company, priority 1985, dated 1988)
# What was measured:
# Assay type in all cases: in vivo
# [1] = tested on: Barnyard Grass; test: Preemergent activity; settings: Echinochloa crus-galli, pre-emergence, read-out: Preemergence Control
# Summary of the method: (§1)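 Test compound was dissolved in acetone at twice the final concentration, then mixed with an equal volume of water containing 0.1% w/w Tween-20. The resulting emulsion was sprayed uniformly at a predetermined rate onto sandy loam seed beds sown with each species. Controls received acetone–Tween-20–water only.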
# [2] = tested on: Johnson Grass; test: Preemergent activity; settings: Sorghum halepense, pre-emergence, read-out: Preemergence Control
# Summary of the method: as §1
# [3] = tested on: Wheat; test: Selective postemergence, track sprayer
# Experimental: (§2) Representative compositions of the present invention were evaluated for the postemergence control of species of plants listed in Table A. In these evaluations, pots of the plant species listed in Table A, grown to a height of about 10 cms, were used. Aqueous spray compositions, containing various amounts of 2-[4-(2-fluoro-4-trifluoromethylphenoxy)-phenoxy]propionic acid methy ester, i.e., 125 ppm, 62.5 ppm, 31.25 ppm, 15.6 ppm, 7.8 ppm and 3.9 ppm, respectively, were applied to separate pots. The spray compositions were made by mixing the active ingredient in acetone to 1/2 the final volume, i.e., twice the final concentration. An equal amount of water was added to the active ingredient/acetone mixture wherein the water contained 0.1 percent by weight of TWEEN® 200 surfactant. The application to the plants was made to the point of run-off and was carried out with conventional spraying equipment. Other pots were sprayed with similar compositions containing no toxicant to serve as controls. Thereafter, the pots were maintained under conditions conducive for plant growth. Two weeks after treatment, the pots were examined for plant growth and evaluated on a scale of 0 to 100 where 0 represents no effect and 100 represents complete kill. The results of the examination of the treated pots are set forth below in Table A.
# (§3) To further define the selective postemergence herbicidal characteristics of compounds of the present invention, chemicals were applied to additional species of grasses as listed in Table F. Chemicals evaluated were 2-[4-(4-bromo-2-fluorophenoxy)phenoxy]propionic acid methyl ester and its R isomer. Treatment conditions were similar to those described in Example A except that chemicals were delivered through a track sprayer set to deliver the appropriate dosages in 280.6 L/hectare of water containing 0.1% Tween-20 surfactant.
# [4] = tested on: Goosegrass; test: Selective postemergence, track sprayer
# Experimental: as §2, §3
# [5] = tested on: Green Foxtail; test: Selective postemergence, track sprayer
# Experimental: as §2, §3
# [6] = tested on: Orchardgrass; test: Selective postemergence, track sprayer
# Experimental: as §2, §3
# [7] = tested on: Broadleaf Signalgrass; test: Selective postemergence, track sprayer
# Experimental: as §2, §3
# [8] = tested on: Annual Bluegrass; test: Selective postemergence, track sprayer
# Experimental: as §2, §3
# [9] = tested on: Downey Brome; test: Selective postemergence, track sprayer
# Experimental: as §2, §3
# [10] = tested on: Red Top; test: Selective postemergence, track sprayer
# Experimental: as §2, §3
compound,measurement,setting,value
COC(=O)C(C)Oc1ccc(Oc2ccc(C(F)(F)F)cc2F)cc1 (stereo not drawn) [2-[4-(2-fluoro-4-trifluoromethylphenoxy)phenoxy]propionic acid methyl ester],pest or weed control at 18 g/ha,[1]; 0.018 kgs/hectare,20%
same,pest or weed control at 35 g/ha,[1]; 0.035 kgs/hectare,70%
same,pest or weed control at 70 g/ha,[1]; 0.07 kgs/hectare,80%
same,pest or weed control at 114 g/ha,[1]; 0.114 kgs/hectare,100%
same,pest or weed control at 280 g/ha,[1]; 0.28 kgs/hectare,100%
same,pest or weed control at 18 g/ha,[2]; 0.018 kgs/hectare,20%
same,pest or weed control at 35 g/ha,[2]; 0.035 kgs/hectare,60%
same,pest or weed control at 70 g/ha,[2]; 0.07 kgs/hectare,90%
same,pest or weed control at 114 g/ha,[2]; 0.114 kgs/hectare,100%
same,pest or weed control at 280 g/ha,[2]; 0.28 kgs/hectare,100%
"COC(=O)[C@@H](C)Oc1ccc(Oc2ccc(Br)cc2F)cc1 [4-Bromo-(R-Enantiomer), R enantiomer of 2-[4-(4-bromo-2-fluorophenoxy)phenoxy]propionic acid methyl ester]",Percent Control,[3]; 0.00055 kgs/hectare,0%
same,Percent Control,[3]; 0.0011 kgs/hectare,0%
same,Percent Control,[3]; 0.0023 kgs/hectare,0%
same,Percent Control,[3]; 0.0045 kgs/hectare,0%
same,Percent Control,[3]; 0.009 kgs/hectare,0%
same,Percent Control,[3]; 0.018 kgs/hectare,0%
same,Percent Control,[3]; 0.035 kgs/hectare,0%
same,Percent Control,[3]; 0.07 kgs/hectare,0%
same,Percent Control,[3]; 0.14 kgs/hectare,0%
same,Percent Control,[3]; 0.28 kgs/hectare,0%
same,Percent Control,[4]; 0.00055 kgs/hectare,0%
same,Percent Control,[4]; 0.0011 kgs/hectare,0%
same,Percent Control,[4]; 0.0023 kgs/hectare,0%
same,Percent Control,[4]; 0.0045 kgs/hectare,20%
same,Percent Control,[4]; 0.009 kgs/hectare,70%
same,Percent Control,[4]; 0.018 kgs/hectare,50%
same,Percent Control,[4]; 0.035 kgs/hectare,70%
same,Percent Control,[4]; 0.07 kgs/hectare,70%
same,Percent Control,[4]; 0.14 kgs/hectare,80%
same,Percent Control,[4]; 0.28 kgs/hectare,80%
same,Percent Control,[5]; 0.00055 kgs/hectare,30%
same,Percent Control,[5]; 0.0011 kgs/hectare,70%
same,Percent Control,[5]; 0.0023 kgs/hectare,90%
same,Percent Control,[5]; 0.0045 kgs/hectare,95%
same,Percent Control,[5]; 0.009 kgs/hectare,95%
same,Percent Control,[5]; 0.018 kgs/hectare,100%
same,Percent Control,[5]; 0.035 kgs/hectare,100%
same,Percent Control,[5]; 0.07 kgs/hectare,100%
same,Percent Control,[5]; 0.14 kgs/hectare,100%
same,Percent Control,[5]; 0.28 kgs/hectare,100%
same,Percent Control,[6]; 0.00055 kgs/hectare,0%
same,Percent Control,[6]; 0.0011 kgs/hectare,0%
same,Percent Control,[6]; 0.0023 kgs/hectare,0%
same,Percent Control,[6]; 0.0045 kgs/hectare,0%
same,Percent Control,[6]; 0.009 kgs/hectare,0%
same,Percent Control,[6]; 0.018 kgs/hectare,0%
same,Percent Control,[6]; 0.035 kgs/hectare,0%
same,Percent Control,[6]; 0.07 kgs/hectare,0%
same,Percent Control,[6]; 0.14 kgs/hectare,0%
same,Percent Control,[6]; 0.28 kgs/hectare,50%
same,Percent Control,[7]; 0.00055 kgs/hectare,50%
same,Percent Control,[7]; 0.0011 kgs/hectare,50%
same,Percent Control,[7]; 0.0023 kgs/hectare,50%
same,Percent Control,[7]; 0.0045 kgs/hectare,90%
same,Percent Control,[7]; 0.009 kgs/hectare,95%
same,Percent Control,[7]; 0.018 kgs/hectare,100%
same,Percent Control,[7]; 0.035 kgs/hectare,100%
same,Percent Control,[7]; 0.07 kgs/hectare,100%
same,Percent Control,[7]; 0.14 kgs/hectare,100%
same,Percent Control,[7]; 0.28 kgs/hectare,100%
same,Percent Control,[8]; 0.00055 kgs/hectare,0%
same,Percent Control,[8]; 0.0011 kgs/hectare,0%
same,Percent Control,[8]; 0.0023 kgs/hectare,0%
same,Percent Control,[8]; 0.0045 kgs/hectare,0%
same,Percent Control,[8]; 0.009 kgs/hectare,0%
same,Percent Control,[8]; 0.018 kgs/hectare,0%
same,Percent Control,[8]; 0.035 kgs/hectare,0%
same,Percent Control,[8]; 0.07 kgs/hectare,0%
same,Percent Control,[8]; 0.14 kgs/hectare,0%
same,Percent Control,[8]; 0.28 kgs/hectare,0%
same,Percent Control,[9]; 0.00055 kgs/hectare,0%
same,Percent Control,[9]; 0.0011 kgs/hectare,0%
same,Percent Control,[9]; 0.0023 kgs/hectare,0%
same,Percent Control,[9]; 0.0045 kgs/hectare,0%
same,Percent Control,[9]; 0.009 kgs/hectare,0%
same,Percent Control,[9]; 0.018 kgs/hectare,0%
same,Percent Control,[9]; 0.035 kgs/hectare,0%
same,Percent Control,[9]; 0.07 kgs/hectare,0%
same,Percent Control,[9]; 0.14 kgs/hectare,0%
same,Percent Control,[9]; 0.28 kgs/hectare,0%
same,Percent Control,[10]; 0.00055 kgs/hectare,0%
same,Percent Control,[10]; 0.0011 kgs/hectare,0%
same,Percent Control,[10]; 0.0023 kgs/hectare,0%
same,Percent Control,[10]; 0.0045 kgs/hectare,0%
same,Percent Control,[10]; 0.009 kgs/hectare,0%
same,Percent Control,[10]; 0.018 kgs/hectare,0%
same,Percent Control,[10]; 0.035 kgs/hectare,30%
same,Percent Control,[10]; 0.07 kgs/hectare,90%
same,Percent Control,[10]; 0.14 kgs/hectare,90%
same,Percent Control,[10]; 0.28 kgs/hectare,90%
